Source: patent publication US20060063751A1, “Novel fused heterocycles and uses thereof” (AstraZeneca AB, priority 2003, published 2006)

Target: T1, recombinant HsEg5 motor domain (amino acids 1-369-8His) (Homo sapiens, UniProt P52732)
T1 construct: Enzyme was recombinant HsEg5 motor domain (amino acids 1-369-8His); 8His (C)
T1 sequence (P52732 1-369): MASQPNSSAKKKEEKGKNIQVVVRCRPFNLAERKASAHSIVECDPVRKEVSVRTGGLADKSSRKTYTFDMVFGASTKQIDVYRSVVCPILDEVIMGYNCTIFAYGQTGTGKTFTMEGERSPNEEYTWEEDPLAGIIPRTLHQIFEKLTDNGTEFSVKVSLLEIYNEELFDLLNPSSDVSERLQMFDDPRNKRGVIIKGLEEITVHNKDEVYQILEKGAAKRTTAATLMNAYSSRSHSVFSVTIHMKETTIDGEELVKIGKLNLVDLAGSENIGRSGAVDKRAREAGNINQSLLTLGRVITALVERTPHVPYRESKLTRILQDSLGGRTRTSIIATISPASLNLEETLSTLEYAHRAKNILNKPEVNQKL
Experiment: Malachite Green Assay (Eg5 motor ATPase, phosphate liberated from ATP)
Assay type: biochemical
Method: Enzymatic activity of the Eg5 motor and effects of inhibitors was measured using a malchite green assay, which measures phosphate liberated from ATP, and has been used previously to measure the activity of kinesin motors (Hackney and Jiang, 2001). Enzyme was recombinant HsEg5 motor domain (amino acids 1-369-8His) and was added at a final concentration of 6 nM to 100 μl reactions. Buffer consisted of 25 mM PIPES/KOH, pH 6.8, 2 mM MgCl2, 1 mM EGTA, 1 mM dtt, 0.01% Triton X-100 and 5 μM paclitaxel. Malachite green/ammonium molybdate reagent was prepared as follows: for 800 ml final volume, 0.27 g of Malachite Green (J. T. Baker) was dissolved in 600 ml of H2O in a polypropylene bottle. […]
5 μl of compound diluted in 12% DMSO was added to the wells of 96 well plates. […] The reactions were then quenched by the addition of 150 μl malachite green/ammonium molybdate reagent, and absorbance read at 650 nanometers exactly 5 min after quench using a Spectramax Plus plate reader (Molecular Devices). Data was graphed and IC50s calculated using ExCel Fit (Microsoft).
Enzymatic activity of the Eg5 motor and effects of inhibitors was measured using a malachite green assay, which measures phosphate liberated from ATP, and has been used previously to measure the activity of kinesin motors (Hackney and Jiang, 2001). […] Data was graphed and IC50s calculated using ExCel Fit (Microsoft).

IC50 [nM] | SMILES
90 | CCC(c1nc2c(C)nsc2c(=O)n1Cc1ccccc1)N(CCCN)C(=O)c1ccc(C)cc1 (centres unmarked) [Section 2: Example E1, N-(3-Amino-propyl)-N-[1-(6-benzyl-3-methyl-7-oxo-6,7-dihydro-isothiazolo[4,5-d]pyrimidin-5-yl)-propyl]-4-methyl-benzamide hydrogen chloride]
136 | CCC(c1nc2snc(C)c2c(=O)n1Cc1ccccc1)N(CCCN)C(=O)c1cccc(Cl)c1Cl (single isomer, unassigned; (+)) [Section 3: Example A7, (+) N-(3-Amino-propyl)-N-[1-(5-benzyl-3-methyl-4-oxo-4,5-dihydro-isothiazolo[5,4-d]pyrimidin-6-yl)-propyl]-2,3-dichloro-benzamide hydrogen chloride]
